From patent publication US7153822B2, “Compositions and methods for modulating connexin hemichannels” (Wyeth, priority 2002, dated 2006)

Experiments:
[1] = system: connexin 43 (Cx43); assay: immunoprecipitation and immunoblot of phosphorylated connexin 43; format: cell-based; conditions: cultured H9c2 cardiomyocytes
Experimental: H9c2 cells were seeded in 24-multi well dishes in a density of 7,900 cells/cm^2 (˜15,000 cells/well) and grown for 3 days in MEM suplemented with 10% foetal calf serum (FCS) and 1000 units penicillin/1000 μg streptomycin (pen/strep) in an atmosphere of 5% CO2 and 100% humidity at 37° C.
The labelled cells were incubated in Triton X-100 lysis buffer (˜5*10^7 cells/ml) for 1 hr at 4° C. The lysate is centrifuged 30 min at 20,000*g for 30 min. The supernatant was precleared by adding 10 ul Sepharose per 200 μl supernatant. The precleared supernatant were then added 0.5–1 μg phospho-tyrosine or phospho-serine antibodies (Sigma) and incubated for 1.5 hr at 4° C. in an orbital shaker. The antibody-complex was then captured by incubation with 50 μl of a 1:1 slurry of protein G Sepharose for 1.5 hr. Finally the complex were extensively washed with 0.1% (w/v) Triton X-100, 50 mM Tris, pH 7.4, 300 mM NaCl and 5 mM EDTA.
The complexes were loaded onto a 12% SDS gel and blotted onto a PVDF membrane. The membrane is blocked with 0.1% Tween 20, 50 mM Tris, pH 7.4, 300 mM NaCl, 5% dry milk (TBST) for minimum 2 h. The membrane was subsequently incubated with connexin 43 specific antibodies (Zymed) for 1.5 h at RT and developed with ECL+ (Amersham).

[2] = system: infarcted mice; assay: bone marrow cell transplantation after myocardial infarction (design of Orlic et al); format: in vivo; conditions: repeated administration during the proliferation process
Description: Myocardial infarction leads to loss of tissue and impairment of cardiac performance. The remaining myocytes are unable to reconstitute the necrotic tissue, and the post-infarcted heart deteriorates with time. Injury to a target organ is sensed by distant stem cells, which migrate to the site of damage and undergo alternate stem cell differentiation; these events promote structural and functional repair. This high degree of stem cell plasticity prompted Orlic et al (Nature 410, 701–705 (2001)) to test whether dead myocardium could be restored by transplanting bone marrow cells in infarcted mice. They sorted lineage-negative (Lin−) bone marrow cells from transgenic mice expressing enhanced green fluorescent protein by fluorescence-activated cell sorting on the basis of c-kit expression. Shortly after coronary ligation, Lin− c-kitPOS cells were injected in the contracting wall bordering the infarct. […] The developing tissue comprised proliferating myocytes and vascular structures. Their studies indicate that locally delivered bone marrow cells can generate de novo myocardium, ameliorating the outcome of coronary artery disease. […]

Ac-Gly-Asn-Tyr-NH2 [Compound 2]
tyrosine phosphorylation of connexin 43 [1]: phosphorylation of Cx43 tyrosine
connexin 43 expression [2]: increase in connexin 43 expression
